Test results taken from patent US11918555B2, “Dicarboxylic acid esters for the treatment of diseases and conditions associated with phospholipase D toxin” (priority 2020, dated 2024).

How the values were obtained:
[1] = test system: brown recluse spider bite; assay: Topical diethyl azelate treatment of brown recluse spider bite; assay type: in vivo, human
Protocol: An adult subject was bitten once on their left forearm, and twice on their neck about one year later. Diethyl azelate was applied topically to the envenomation site at approximately 4 to 8 hour intervals for 14 days. Images of the affected neck area were normalized to the same size and converted to JPEG files. Inflamed red areas surrounding the bites visible as elevated lesions were outlined on the images and quantified using ImageJ software version 1.53e (ImageJ.nih.gov).

human RBC = assay: Hemolysis assay on human RBC (substance alone); assay type: cell-based
Protocol: (§1) Hemolytic activity was assessed on human RBC. The assay using human erythrocytes followed an established procedure as described in Evans, et al., “Ex vivo red blood cell hemolysis assay for the evaluation of pH-responsive endosomolytic agents for cytosolic delivery of biomacromolecular drugs,” J Vis Exp, 2013, e50166. Briefly, whole peripheral blood was drawn directly into K2-EDTA coated Vacutainer tubes and centrifuged at 500×g (relative centrifugal force). Pelleted erythrocytes were washed twice each with 150 mM NaCl and with phosphate buffered saline (PBS) and then reconstituted in 50-fold excess PBS. Immediately prior to the assay LOX was reconstituted in 20% glycerol in PBS. rPLD toxin was supplied as frozen stock in 10 mM Tris-HCl, 1 mM EDTA, 20% glycerol, was thawed on ice. The lysis assay was performed in 96-wells in a total volume of 200 ul. LOX and PLD toxin were and added as 20× concentrated stocks to the erythrocyte suspension. Triton X-100 (5% in serial dilutions to 0.04%) was used as a positive control. Incubation was performed for 60 min and the absorbance at 400 nm was measured using Tecan GENios microwell plate reader. Measurements were performed in triplicate repeats.

[2] = test system: Loxosceles reclusa venom (LOX); assay: Inhibition of hemolysis induced by L. reclusa venom (LOX); assay type: cell-based
Protocol: (§2) Lyophilized Loxosceles reclusa venom (LOX) was purchased from SpiderPharm, Yarnell, AZ Immediately prior to the assay LOX was reconstituted in 20% glycerol in PBS. Recombinant Loxosceles intermedia Phospholipase D LiSicTox-alphaIA1a full length protein expressed in E.coli (part #MBS1258368), further referred to as rPLD toxin, was purchased from MyBiosource Inc, San Diego, CA Diethyl azelate (>99% purity) was prepared as described in Streeper, el al.,“Oral Azelaic Acid Ester Decreases Markers Of Insulin Resistance In Overweight Male Human Subjects.” In Vivo (2020), 34(3), 1173-1186.
as §1

[3] = test system: Recombinant Loxosceles intermedia Phospholipase D LiSicTox-alphaIA1a (rPLD toxin); assay: Inhibition of hemolysis induced by recombinant PLD toxin; assay type: cell-based
Protocol: as §2, §1

| Compound | swelling and discomfort ([1]; first incident, forearm bite, topical treatment initiated 4 hours after envenomation, by the fourth day) | arm circumference relative to pre-bite ([1]; first incident, forearm bite, topical treatment initiated 4 hours after envenomation, second day) | time of maximum inflamed red area around the bites ([1]; second incident, two neck bites, topical treatment initiated immediately, Day 2) [hours post-bite] | redness, pain and swelling ([1]; second incident, two neck bites, topical treatment initiated immediately, by Day 14) | effect on hemolysis (human RBC; human erythrocytes incubated with 122 μM DEA alone) | inhibition of hemolysis by L. reclusa venom, dose dependence ([2]; FIG. 3 legend) | inhibition of enzymatic activity of PLD toxin as measured by hemolysis induced by L. reclusa spider venom ([2]; FIG. 4 legend) | inhibition of hemolysis ([2]; preincubation of DEA with LOX for 60 min followed by addition of erythrocytes (FIG. 4)) | inhibition of hemolysis ([2]; preincubation of DEA with erythrocytes for 60 min followed by addition of LOX (FIG. 4)) | inhibition of hemolysis in the presence of LOX ([2]; starting at the lowest concentration of 1 μM DEA, constant LOX concentration (FIG. 3)) | hemolysis in the presence of PLD toxin ([3]; 1 μM DEA, reduced from 78%) [%] | hemolysis in the presence of PLD toxin ([3]; 5 μM DEA) [%] | hemolysis in the presence of PLD toxin ([3]; 24 μM DEA) [%] | hemolysis in the presence of PLD toxin ([3]; 122 μM DEA) [%] | inhibition of hemolysis by recombinant L. intermedia rPLD toxin, dose dependence ([3]; FIG. 3 legend) | inhibition of enzymatic activity of PLD toxin as measured by hemolysis induced by recombinant L. intermedia rPLD toxin ([3]; FIG. 4 legend) | erythrocytes hydrolyzed (hemolysis) (human RBC; human erythrocytes incubated with 5% Triton X100, positive control) [%] |
| --- | --- | --- | --- | --- | --- | --- | --- | --- | --- | --- | --- | --- | --- | --- | --- | --- | --- |
| CCOC(=O)CCCCCCCC(=O)OCC [DEA, Diethyl azelate] | largely subsided | approximately twice | 26 | entirely resolved | no effect on hemolysis | inhibits hemolysis | directly inhibits enzymatic activity | inhibition of hemolysis | inhibition of hemolysis | significantly inhibits hemolysis | 43 | 16 | 13 | 5 | inhibits hemolysis | directly inhibits enzymatic activity |  |
| Triton X100 [reference compound] |  |  |  |  |  |  |  |  |  |  |  |  |  |  |  |  | > 95 |
